Six compounds from patent US6531472B2, “Tetralone derivatives” (Hoffman-La Roche Inc., priority 2000, dated 2003) can be followed below.

The structures appear in SMILES notation.

In the assay the test system is HDAC. The assay can be described thus: HDAC inhibition screening assay using an aminocoumarin derivative of an omega-acetylated lysine as substrate. Type of assay: biochemical. Conditions: compound concentration 10 nM. As for the experimental part: To measure the HDAC inhibitory properties of the compounds of the invention a screening assay was established using an aminocoumarin derivative of an omega-acetylated lysine as substrate for the enzyme. […] Using the protocol described therein, the inhibitory effect of the new compounds was determined at a concentration of 10 nM.
`COc1ccc2c(c1)CCC(CCCCC(=O)NO)C2=O` (stereo not drawn) [Example 2, 5-(6-methoxy-1-oxo-1,2,3,4-tetrahydro-naphthalen-2-yl)-pentanoic acid hydroxyamide]: the “Inhibitory effect at 10 nM in %” value was 64%.
To `CC1(CCCCCC(=O)NO)CCc2ccccc2C1=O` (stereo not drawn) [Example 4, 6-(2-methyl-1-oxo-1,2,3,4-tetrahydro-naphthalen-2-yl)-hexanoic acid hydroxyamide] belongs 71%; to `CC1(/C=C/CCCC(=O)NO)CCc2ccccc2C1=O` (stereo not drawn) [Example 7, 6-(2-methyl-1-oxo-1,2,3,4-tetrahydro-naphthalen-2-yl)-hex-5-enoic acid hydroxyamide], 60%.
`COc1cccc2c1CCC(CCCCCC(=O)NO)C2=O` (stereo not drawn) [Example 8]: the “Inhibitory effect at 10 nM in %” value was 72%.
Take `CCOC(=O)C1(CCCCCC(=O)NO)CCc2c(OC)cccc2C1=O` (stereo not drawn) [Example 9, 2-(5-hydroxycarbamoyl-pentyl)-5-methoxy-1-oxo-1,2,3,4-tetrahydro-naphtalene-2-carboxyclic acid ethyl ester]: the “Inhibitory effect at 10 nM in %” value is on record as 57%.
Regarding `CCOC(=O)C1(CCCCCCCC(=O)NO)CCc2c(C)cc(C)cc2C1=O` (stereo not drawn) [Example 10, 2-(7-Hydroxycarbamoyl-heptyl)-5,7-dimethyl-1-oxo-1,2,3,4-tetrahydro-naphtalene-2-carboxylic acid ethyl ester], the “Inhibitory effect at 10 nM in %” value is 55%.
